According to US20140105957A1, “BIS-(ALPHA-AMINO-DIOL-DIESTER) CONTAINING POLYESTERAMIDE FOR OPHTAMOLOGY” (DSM IP ASSETS B.V., priority 2011, published 2014):

Assay: Stability of Latanoprost in PEA III formulations and compatibility with film casting, evaluated by 1H NMR
Format: physicochemical
Protocol: For film casting, solutions were prepared in a suitable solvent resulting in solutions with viscosities low enough for solvent casting. Exact amounts of PEA-III ac Bz and API (Active Pharmaceutical Ingredient) were weighed and dissolved with a suitable solvent. The API payload is determined over the polymer weight. API payload of 10% was used. The API/polymer/solvent formulations were poured into petri dishes (4 cm diameter) and covered to reduce evaporation rates of the solvent and prevent formation of air bubbles. The solvent was evaporated for 2 days at TT in a fumehood followed by 2 days @ 750 mBar, 1 day @ 500 mBar and 2 days at full vacuum. From the resulting films, discs were cut with diameter of 10 mm and approximate thicknesses of 500 μm.
A sample was prepared by dissolving ˜10 mg of material in 1 ml of deuterated THF in a 10 ml glass vial. The sample was allowed sufficient time for complete dissolution. ^1H NMR spectra was recorded on a 300 MHz Bruker Avance 300, ARX 400 NMR instrument.
Stability of Latanoprost in formulations and compatibility with film casting procedure was evaluated by ^1H NMR.

## CC(C)OC(=O)CCC/C=C\C[C@@H]1[C@@H](CC[C@@H](O)CCc2ccccc2)[C@H](O)C[C@@H]1O [Latanoprost]
PEA III formulations with Latanoprost stored @ 4° C. for 3 months
  Stability of Latanoprost (degradation of API) by 1H NMR: did not indicate any degradation
Initial PEA III formulations with Latanoprost, after film casting
  Stability of Latanoprost (degradation of API) by 1H NMR: did not indicate any degradation
